The compounds below were run against T1, Angiotensin-converting enzyme (Rattus norvegicus, UniProt P47820) (assay: Inhibitory activity against angiotensin converting enzyme (ACE); Activity is for a diastereomeric or racemic mixture).
T1 sequence (P47820 whole entry): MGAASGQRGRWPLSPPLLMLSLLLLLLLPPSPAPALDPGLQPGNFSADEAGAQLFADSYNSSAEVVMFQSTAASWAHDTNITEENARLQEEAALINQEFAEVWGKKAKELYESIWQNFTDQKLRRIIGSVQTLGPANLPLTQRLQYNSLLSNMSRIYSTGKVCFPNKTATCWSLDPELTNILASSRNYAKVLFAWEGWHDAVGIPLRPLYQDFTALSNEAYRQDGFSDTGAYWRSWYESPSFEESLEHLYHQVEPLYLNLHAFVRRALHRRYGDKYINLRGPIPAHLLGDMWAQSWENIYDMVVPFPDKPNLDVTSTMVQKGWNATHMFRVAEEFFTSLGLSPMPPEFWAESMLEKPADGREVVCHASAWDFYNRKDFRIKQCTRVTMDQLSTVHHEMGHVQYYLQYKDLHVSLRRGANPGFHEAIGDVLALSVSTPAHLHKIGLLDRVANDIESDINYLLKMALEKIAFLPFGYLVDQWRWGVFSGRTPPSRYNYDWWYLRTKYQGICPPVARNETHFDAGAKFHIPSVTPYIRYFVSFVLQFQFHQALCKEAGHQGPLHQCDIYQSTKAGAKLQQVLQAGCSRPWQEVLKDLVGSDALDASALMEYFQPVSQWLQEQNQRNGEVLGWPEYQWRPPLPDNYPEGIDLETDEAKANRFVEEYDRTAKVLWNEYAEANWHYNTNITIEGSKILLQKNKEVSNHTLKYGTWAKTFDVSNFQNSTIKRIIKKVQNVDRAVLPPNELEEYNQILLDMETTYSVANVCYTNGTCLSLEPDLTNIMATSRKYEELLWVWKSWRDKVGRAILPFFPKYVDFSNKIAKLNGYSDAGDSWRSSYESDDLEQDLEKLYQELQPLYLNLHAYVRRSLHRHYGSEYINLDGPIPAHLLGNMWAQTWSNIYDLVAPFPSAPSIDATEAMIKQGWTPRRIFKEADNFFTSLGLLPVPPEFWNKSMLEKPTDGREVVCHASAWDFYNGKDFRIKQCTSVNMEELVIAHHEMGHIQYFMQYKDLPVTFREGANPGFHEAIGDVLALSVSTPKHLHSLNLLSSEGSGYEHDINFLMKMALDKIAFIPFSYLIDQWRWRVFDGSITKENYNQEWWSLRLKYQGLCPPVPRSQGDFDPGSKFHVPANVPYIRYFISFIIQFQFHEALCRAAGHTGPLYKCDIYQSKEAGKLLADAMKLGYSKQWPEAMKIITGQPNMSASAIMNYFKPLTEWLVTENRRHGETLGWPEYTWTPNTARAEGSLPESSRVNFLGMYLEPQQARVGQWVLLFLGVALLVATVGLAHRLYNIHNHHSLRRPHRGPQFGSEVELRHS
Assay type: functional

Row | Structure (SMILES) | IC50
1 | C[C@H](NC(C(=O)O)C(Cc1ccccc1)NC(=O)c1ccccc1)C(=O)N1CCC[C@H]1C(=O)O (some centres not stated) | 7.76 nM

What follows are compounds tested against Angiotensin-converting enzyme (Homo sapiens, UniProt P12821) (assay: Inhibitory activity against angiotensin converting enzyme (ACE)).
Assay type: functional

Row | Structure (SMILES) | IC50
2 | NCCCC[C@H](OP(=O)(O)CCCCc1ccccc1)C(=O)N1C[C@H](c2ccccc2)C[C@H]1C(=O)O | 339 nM
3 | O=C(O)CCNC(=O)CCS | 490000 nM
4 | O=C(CCS)OC(Cc1ccccc1)C(=O)O (configuration not stated) | 708 nM
5 | CC(C(=O)O)C1CCCCC(CS)C1=O (configuration not stated) | 52.5 nM
6 | NCCCC[C@H](OP(=O)(O)CCCCc1ccccc1)C(=O)N1C[C@@H](Sc2ccccc2)C[C@H]1C(=O)O | 0.525 nM
7 | O=C(O)[C@@H]1CC2(CN1C(=O)CP(=O)(O)CCCCc1ccccc1)SCCS2 | 3.98 nM
8 | O=C(O)[C@@H]1CCCN1C(=O)C1CCCC1S (some centres not stated) | 64.6 nM

Other lines, results leading:

Row | IC50 | Structure (SMILES)
9 | 191000 nM | C[C@@H](N)C(=O)N[C@@H](Cc1ccccc1)C(=O)O (stereo in doubt; 52)
10 | 3.02 nM | C[C@@H]1CCCC(NC(CCc2ccccc2)C(=O)O)C(=O)N1CC(=O)O (some centres not stated)
11 | 72.4 nM | O=C(NC(CCc1ccccc1)P(=O)(O)CC(=O)N1CCC[C@H]1C(=O)O)c1ccccc1 (some centres not stated)
12 | 40.7 nM | C[C@H](NP(=O)(O)OCc1ccccc1)C(=O)N1CCC[C@H]1C(=O)O

From ChEMBL document CHEMBL1126767, “Three-dimensional quantitative structure-activity relationship of angiotesin-converting enzyme and thermolysin inhibitors. II. A comparison of CoMFA models incorporating molecular orbital fields and desolvation free energies based on active-analog and complementary-receptor-field alignment rules” (J Med Chem, 1993)
